The values that follow come from US7244837B2, “Insect monoamine transporter and methods of use thereof” (The University of Western Ontario, priority 1999, dated 2007).

A word on the IC50: it is the midpoint of a concentration-inhibition curve. A higher IC50 goes with a need for much substance. The Ki is a measure of affinity in units of concentration, obtained from inhibition or displacement. Read a low Ki as higher affinity.

In this test the target is T1, OA/TAT (octopamine/tyramine transporter) (Trichoplusia ni, UniProt Q95VZ4, D309A/R312W).
T1 sequence (Q95VZ4 75-744 D309A/R312W): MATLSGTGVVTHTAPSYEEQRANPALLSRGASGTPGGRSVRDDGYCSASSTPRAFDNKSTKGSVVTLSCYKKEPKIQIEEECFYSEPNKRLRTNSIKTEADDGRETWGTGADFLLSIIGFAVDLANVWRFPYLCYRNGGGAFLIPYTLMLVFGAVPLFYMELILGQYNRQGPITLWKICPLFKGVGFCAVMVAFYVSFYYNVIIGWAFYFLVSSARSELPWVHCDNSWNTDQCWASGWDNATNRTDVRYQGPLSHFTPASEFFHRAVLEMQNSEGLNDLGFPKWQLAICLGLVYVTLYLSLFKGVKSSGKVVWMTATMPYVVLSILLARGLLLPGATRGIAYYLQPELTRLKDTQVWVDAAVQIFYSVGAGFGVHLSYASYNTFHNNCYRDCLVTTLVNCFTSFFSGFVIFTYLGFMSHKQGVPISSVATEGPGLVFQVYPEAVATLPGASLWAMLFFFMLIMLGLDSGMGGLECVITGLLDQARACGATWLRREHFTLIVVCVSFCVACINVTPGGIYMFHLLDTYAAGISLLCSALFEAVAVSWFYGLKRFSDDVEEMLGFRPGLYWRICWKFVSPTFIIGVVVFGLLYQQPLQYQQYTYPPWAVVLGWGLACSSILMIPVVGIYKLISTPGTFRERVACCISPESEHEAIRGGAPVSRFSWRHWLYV
Kind of test: 3H-dopamine uptake by OA/TAT expressed in baculovirus-infected Sf21 insect cells (transport assay). It is filed as cell-based. To be noted: for inhibition at 10 µM: read-out: % Inhibition of 3H-Dopamine uptake by OA/TAT.

The structures appear in SMILES notation.

As to `NCCc1ccc(O)cc1` [Tyramine], the IC50 worked out at 390 ± 110 nM; the affinity, expressed as Ki, was 350 ± 100 nM; the inhibition at 10 µM turned out to be 96.5%.
As for `NCCc1c[nH]cn1` [Histamine], the inhibition at 10 µM was -1.81%.
On to `NC[C@H](O)c1ccc(O)c(O)c1` [Norepinephrine, (−)-Arterenol], for which the IC50 came to 22000 ± 2940 nM, the Ki stood at 20000 ± 2670 nM and the inhibition at 10 µM was found to be 27.2%.
The corresponding values for `NCCc1ccc(O)c(O)c1` [Dopamine, 3-Hydroxytyramine] are 4100 ± 1020 nM, 3720 ± 920 nM and 70.2%.
In the case of `CN[C@@H](C)[C@@H](O)c1ccccc1` [Pseudoephedrine, (−)-ψ-Ephedrine], the inhibition at 10 µM was 1.31%.
Take `Fc1ccc(C(OCCN2CCN(CCCc3ccccc3)CC2)c2ccc(F)cc2)cc1` [GBR12909]: the inhibition at 10 µM was -10%.
Same read-out and setting: the figure for `CNCC(O)c1ccc(O)cc1` (racemic) [Synephrine, (±)-Synephrine] is 6.39%.
As for `NCC(O)c1ccc(O)cc1` (racemic) [Octopamine, DL-Octopamine], the half-inhibitory concentration (IC50) came to 1920 ± 280 nM, the Ki was determined as 1740 ± 250 nM and the inhibition at 10 µM came to 80.9%.
As to `NCCc1c[nH]c2ccccc12` [Tryptamine], the inhibition at 10 µM amounted to 9.57%.
For `NCCc1c[nH]c2ccc(O)cc12` [Serotonin, 5-Hydroxytryptamine], the inhibition at 10 µM was -3.6%.
